Measurements from article PMC5679075 (Nature, 2017).

Target: T1, LepI (Aspergillus flavus, UniProt B8NJH3)
T1 sequence (B8NJH3 1-387): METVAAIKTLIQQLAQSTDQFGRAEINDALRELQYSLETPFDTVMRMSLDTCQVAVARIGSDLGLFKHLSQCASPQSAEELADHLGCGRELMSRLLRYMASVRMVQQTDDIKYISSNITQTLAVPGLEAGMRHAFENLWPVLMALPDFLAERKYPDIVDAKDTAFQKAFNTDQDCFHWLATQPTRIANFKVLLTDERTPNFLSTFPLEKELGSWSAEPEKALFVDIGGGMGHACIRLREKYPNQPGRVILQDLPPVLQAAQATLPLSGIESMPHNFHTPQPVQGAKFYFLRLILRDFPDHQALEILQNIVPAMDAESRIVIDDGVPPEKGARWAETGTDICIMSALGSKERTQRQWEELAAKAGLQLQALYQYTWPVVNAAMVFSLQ
Assay: HPLC time course, inhibition of retro-Claisen rearrangement
Type: biochemical
Details: read-out: % inhibition at 250 μM

Nc1ncnc2c1ncn2[C@@H]1O[C@H](CSCC[C@H](N)C(=O)O)[C@@H](O)[C@H]1O [SAH]
inhibition at 250 µM: > 90%
